tested on: Human peripheral blood mononuclear cells (PBMCs) as Responder cells, RPMI 1788 Stimulator cells; test: Mixed Lymphocyte Reaction (MLR) test; type: cell-based; details: Homo sapiens, RPMI-1788, lowest concentration giving 50% inhibition of the MLR; 6 days coculture, 3H-thymidine incorporation
Summary of the method: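 Proliferation was read as cpm after a 1 μCi ^3H-thymidine pulse on day 5 and harvest 18 h later, then expressed as % inhibition relative to an MLR without compound. The 6-day triplicate cocultures combined 0.12×10^6 Ficoll-isolated human PBMCs with 0.045×10^6 mitomycin C-inactivated RPMI 1788 cells in RPMI 1640 with 10% FCS.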

Going from `CC(c1ccc(F)cc1)c1nc2c(N3CCN(C(=O)COc4ccc(Cl)cc4)CC3)nc(N)nc2s1` (stereo not shown) [Example 66, 1-(4-(5-amino-2-(1-(4-fluorophenyl)ethyl)thiazolo[5,4-d]pyrimidin-7-yl)piperazin-1-yl)-2-(4-chlorophenoxy)ethanone] to `Cn1c(-c2ccc(F)cc2)nc2c(N3CCN(C(=O)COc4ccc(Cl)cc4)CC3)nc(N)nc21` [Example 430, 1-(4-(2-amino-8-(4-fluorophenyl)-9-methyl-9H-purin-6-yl)piperazin-1-yl)-2-(4-chlorophenoxy)ethanone], the IC50 falls from 4380 nM to 360 nM (12-fold).

First: Nc1nc(N2CCN(C(=O)c3cccnc3)CC2)c2cc(-c3ccc(F)cc3)sc2n1 [Example 346, (4-(2-amino-6-(4-fluorophenyl)thieno[2,3-d]pyrimidin-4-yl)piperazin-1-yl)(pyridin-3-yl)methanone]
Second: Nc1nc(N2CCC(C(=O)c3ccccc3)CC2)c2cc(-c3ccc(F)cc3)sc2n1 [Example 348, (1-(2-amino-6-(4-fluorophenyl)thieno[2,3-d]pyrimidin-4-yl)piperidin-4-yl)(phenyl)methanone]
The IC50 of the first is higher: greater than 10000 nM for the first, 8270 nM for the second.

Going from `CC(C)N(C(=O)N1CCN(c2nc(N)nc3sc(-c4ccc(F)cc4)cc23)CC1)C(C)C` [Example 347, 4-(2-amino-6-(4-fluorophenyl)thieno[2,3-d]pyrimidin-4-yl)-N,N-diisopropylpiperazine-1-carboxamide] to `Cc1nc(N2CCN(C(=O)COc3ccc(Cl)cc3)CC2)c2cc(-c3ccc(F)cc3)sc2n1` [Example 325, 2-(4-chlorophenoxy)-1-(4-(6-(4-fluorophenyl)-2-methylthieno[2,3-d]pyrimidin-4-yl)piperazin-1-yl)ethanone], the IC50 falls from 8200 nM to 3390 nM (2.4-fold). The second is the more potent here.

Compared with `Nc1nc(N2CCN(C(=O)Cc3ccc(Cl)cc3)CC2)c2nc(CCc3ccc(F)cc3)oc2n1` [Example 194, 5-amino-2-[2-(4-fluorophenyl)ethyl]-7-(4-[2-(4-chlorophenyl)acetyl]-piperazin-1-yl)-oxazolo[5,4-d]pyrimidine], `Nc1nc(N2CCN(C(=O)COc3ccc(Cl)cc3)CC2)c2nc(-c3ccc(F)cc3)oc2n1` [Example 169, 1-(4-(5-amino-2-(4-fluorophenyl)oxazolo[5,4-d]pyrimidin-7-yl)piperazin-1-yl)-2-(4-chlorophenoxy)ethanone] is 3-fold lower in IC50: 9040 nM for the first, 3000 nM for the second.

Compared with `Nc1nc(N2CCN(CC(=O)N3CCOCC3)CC2)c2nc(-c3ccc(F)cc3)sc2n1` [Example 38, 2-(4-(5-amino-2-(4-fluorophenyl)thiazolo[5,4-d]pyrimidin-7-yl)piperazin-1-yl)-1-morpholinoethanone], `Nc1nc(N2CCN(CC(=O)N3CCCC3)CC2)c2nc(-c3ccc(F)cc3)[nH]c2n1` [Example 410, 2-(4-(2-amino-8-(4-fluorophenyl)-9H-purin-6-yl)piperazin-1-yl)-1-(pyrrolidin-1-yl)ethanone] is higher in IC50: 4800 nM for the first, greater than 10000 nM for the second. The first is the more potent here.

Compared with `Nc1nc(N2CCN(C(=O)COc3cccc(Cl)c3)CC2)c2nc(-c3ccc(F)cc3)sc2n1` [Example 214, 1-(4-(5-amino-2-(4-fluorophenyl)thiazolo[5,4-d]pyrimidin-7-yl)piperazin-1-yl)-2-(3-chlorophenoxy)ethanone], `Cc1ccc(-c2nc3c(N4CCN(C(=O)COc5ccc(Cl)cc5)CC4)nc(N)nc3s2)cc1` [Example 295, 1-(4-(5-amino-2-p-tolylthiazolo[5,4-d]pyrimidin-7-yl)piperazin-1-yl)-2-(4-chlorophenoxy)ethanone] is 2.9-fold higher in IC50: 121 nM for the first, 350 nM for the second.

Compared with `Nc1nc(N2CCCN(C(=O)COc3ccc(Cl)cc3)CC2)c2nc(CCc3ccc(F)cc3)sc2n1` [Example 138, 5-amino-2-[2-(4-fluorophenyl)ethyl]-7-(4-[2-(4-chlorophenoxy)acetyl]homopiperazin-1-yl)-thiazolo[5,4-d]pyrimidine], `Nc1nc(N2CCN(C(=O)COc3ccc(Cl)cc3)CC2)c2nc(CCc3ccccc3)sc2n1` [Example 118, 5-amino-7-[4-(4-chlorophenoxyacetyl)piperazin-1-yl]-2-(2-phenylethyl)thiazolo[5,4-d]pyrimidine] is 2.4-fold lower in IC50: 2100 nM for the first, 860 nM for the second. The second is the more potent here.

Going from `COc1ccc(OCC(=O)N2CCN(c3nc(N)nc4sc(CCCc5ccc(F)cc5)nc34)CC2)cc1` [Example 291, 1-(4-(5-amino-2-(3-(4-fluorophenyl)propyl)thiazolo[5,4-d]pyrimidin-7-yl)piperazin-1-yl)-2-(4-methoxyphenoxy)ethanone] to `COc1ccc(OCC(=O)N2CCN(c3nc(N)nc4sc(Cc5ccc(F)cc5)nc34)CC2)cc1` [Example 230, 1-(4-(5-amino-2-(4-fluorobenzyl)thiazolo[5,4-d]pyrimidin-7-yl)piperazin-1-yl)-2-(4-methoxyphenoxy)ethanone], the IC50 falls from 1110 nM to 270 nM (4.1-fold). The second is the more potent here.

First: Nc1nc(N2CCN(C(=O)COc3ccc(Cl)cc3)CC2)c2nc(-c3ccc(OC(F)(F)F)cc3)[nH]c2n1 [Example 395, 1-(4-(2-amino-8-(4-(trifluoromethoxy)phenyl)-9H-purin-6-yl)piperazin-1-yl)-2-(4-chlorophenoxy)ethanone]
Second: Nc1nc(N2CCN(C(=O)COc3ccc(Cl)cc3)CC2)c2nc(-c3ccc(C(F)(F)F)cc3)[nH]c2n1 [Example 394, 1-(4-(2-amino-8-(4-(trifluoromethyl)phenyl)-9H-purin-6-yl)piperazin-1-yl)-2-(4-chlorophenoxy)ethanone]
The IC50 of the first is higher: greater than 10000 nM for the first, 630 nM for the second.

Compared with `Nc1nc(N2CCN(CC(=O)Nc3cccnc3)CC2)c2nc(-c3ccc(F)cc3)[nH]c2n1` [Example 412, 2-(4-(2-amino-8-(4-fluorophenyl)-9H-purin-6-yl)piperazin-1-yl)-N-(pyridin-3-yl)acetamide], `Nc1nc(N2CCN(c3ccc(Cl)cc3)CC2)c2nc(-c3ccc(F)cc3)[nH]c2n1` [Example 414, 6-(4-(4-chlorophenyl)piperazin-1-yl)-8-(4-fluorophenyl)-9H-purin-2-amine] is 2.2-fold lower in IC50: 8610 nM for the first, 3870 nM for the second. The second is the more potent here.

First: Nc1nc(N2CCN(C(=O)COc3ccc(Cl)cc3)CC2)c2nc(Cc3ccc(Cl)cc3)sc2n1 [Example 122, 5-amino-7-[4-(4-chlorophenoxyacetyl)piperazin-1-yl]-2-(4-chlorophenylmethyl)thiazolo[5,4-d]pyrimidine]
Second: Nc1nc(N2CCN(C(=O)COc3ccc(Cl)cc3)CC2)c2nc(-c3ccc(Cl)cc3)[nH]c2n1 [Example 392, 1-(4-(2-amino-8-(4-chlorophenyl)-9H-purin-6-yl)piperazin-1-yl)-2-(4-chlorophenoxy)ethanone]
The IC50 of the first is higher: greater than 10000 nM for the first, 540 nM for the second.

First: Nc1nc(N2CCN(C(=O)COc3ccc(Br)cc3)CC2)c2cc(-c3ccccc3)sc2n1 [Example 372, 1-(4-(2-amino-6-phenylthieno[2,3-d]pyrimidin-4-yl)piperazin-1-yl)-2-(4-bromophenoxy)ethanone]
Second: CCOC(=O)c1nc(N2CCN(C(=O)COc3ccc(Cl)cc3)CC2)c2cc(-c3ccc(F)cc3)sc2n1 [Example 353, ethyl 4-(4-(2-(4-chlorophenoxy)acetyl)piperazin-1-yl)-6-(4-fluorophenyl)thieno[2,3-d]pyrimidine-2-carboxylate]
The IC50 of the first is lower: 320 nM for the first, greater than 10000 nM for the second. The first is the more potent here.

Going from `Nc1nc(N2CCN(c3nccs3)CC2)c2nc(-c3ccc(F)cc3)sc2n1` [Example 36, 2-(4-fluorophenyl)-7-(4-(thiazol-2-yl)piperazin-1-yl)thiazolo[5,4-d]pyrimidin-5-amine] to `Cc1cccc(NC(=O)N2CCN(c3nc(N)nc4sc(-c5ccc(F)cc5)nc34)CC2)c1` [Example 43, 4-(5-amino-2-(4-fluorophenyl)thiazolo[5,4-d]pyrimidin-7-yl)-N-m-tolylpiperazine-1-carboxamide], the IC50 falls from greater than 10000 nM to 300 nM. The second is the more potent here.

Compared with `Cc1cccc(NC(=O)N2CCN(c3nc(N)nc4sc(Cc5ccc(F)cc5)nc34)CC2)c1` [Example 44, 4-(5-amino-2-(4-fluorobenzyl)thiazolo[5,4-d]pyrimidin-7-yl)-N-m-tolylpiperazine-1-carboxamide], `Cc1cccc(NC(=O)N2CCN(c3nc(N)nc4sc(-c5ccccc5)nc34)CC2)c1` [Example 220, 4-(5-amino-2-phenylthiazolo[5,4-d]pyrimidin-7-yl)-N-m-tolylpiperazine-1-carboxamide] is 2.4-fold lower in IC50: 400 nM for the first, 170 nM for the second. The second is the more potent here.

First: COc1ccc(OCC(=O)N2CCN(c3nc(N)nc4sc(-c5cccnc5)nc34)CC2)cc1 [Example 271, 1-(4-(5-amino-2-(pyridin-3-yl)thiazolo[5,4-d]pyrimidin-7-yl)piperazin-1-yl)-2-(4-methoxyphenoxy)ethanone]
Second: COc1ccc(OCC(=O)N2CCN(c3nc(N)nc4sc(-c5ccc(C)cc5)nc34)CC2)cc1 [Example 294, 1-(4-(5-amino-2-p-tolylthiazolo[5,4-d]pyrimidin-7-yl)piperazin-1-yl)-2-(4-methoxyphenoxy)ethanone]
The IC50 of the first is 62-fold lower: 12 nM for the first, 750 nM for the second. The first is the more potent here.

Compared with `CSc1nc2c(N3CCN(C(=O)COc4ccc(Cl)cc4)CC3)nc(N)nc2n1C` [Example 428, 1-(4-(2-amino-9-methyl-8-(methylthio)-9H-purin-6-yl)piperazin-1-yl)-2-(4-chlorophenoxy)ethanone], `Nc1nc(N2CCN(C(=O)COc3ccc(Cl)cc3)CC2)c2nc(CCc3cccs3)sc2n1` [Example 154, 5-amino-2-(2-thiophen-2-ylethyl)-7-(4-[2-(4-chloro-phenoxy)acetyl]piperazin-1-yl)thiazolo[5,4-d]pyrimidine] is 2.6-fold higher in IC50: 300 nM for the first, 790 nM for the second.

With `Nc1nc(N2CCN(C(=O)COc3ccc(Cl)cc3)CC2)c2nc(SCCc3ccccc3)[nH]c2n1` [Example 427, 1-(4-(2-amino-8-(phenethylthio)-9H-purin-6-yl)piperazin-1-yl)-2-(4-chlorophenoxy)ethanone] the IC50 was greater than 10000 nM.

same assay, conditions: lowest concentration giving 50% inhibition of the MLR; 6 days coculture, 3H-thymidine incorporation

For `COc1ccc(OCC(=O)N2CCN(c3nc(N)nc4sc(-c5ccc(Cl)cc5)nc34)CC2)cc1` [Example 280, 1-(4-(5-amino-2-(4-chlorophenyl)thiazolo[5,4-d]pyrimidin-7-yl)piperazin-1-yl)-2-(4-methoxyphenoxy)ethanone], the IC50 was greater than 10000 nM.

From US9221822B2, “Thiazolopyrimidine modulators as immunosuppressive agents” (Katholieke Universiteit Leuven, K.U.Leuven R&D, priority 2009, dated 2015)
